Data taken from patent publication US20110014137A1, “METHODS FOR PROTECTING THE SKIN FROM RADIATION INSULTS” (priority 2007, published 2011).
“Also recorded” adds a separate entry of the source. Where two headings read alike, the source gives them in different places. Blank lines part the entries; values can stand above or below the compound they belong to.

Tests used:
[1] = tested on: UVB-pretreated high-risk mice; assay: UVB radiation-induced skin carcinogenesis in high-risk mice, dietary administration; type: in vivo; conditions: for reduction of tumor incidence (percent animals with tumors) / reduction of tumor multiplicity (number of tumors per mouse): 13 weeks; for reduction of tumor multiplicity (number of tumors per mouse): diet; for number of tumors per mouse: control 4.3
Method: Seeds of broccoli (Brassica oleracea italica, cv. DeCicco) were used to grow sprouts as described in Example 1. Growth was arrested after 3 days by plunging sprouts into boiling water and allowed to boil for ˜30 min. This treatment inactivated the endogenous sprout myrosinase and extracted the glucosinolates. […] The powder was mixed with the mouse diet (powdered AIN 76A) to give the equivalent of 10 μmol (low dose) or 50 μmol (high dose) of glucoraphanin per 3 grams of diet.
Body weights and formation of tumors larger than 1 mm in diameter were determined weekly.
UVB radiation was provided by a bank of UV lamps (FS72T12-UVB-HO, National Biological Corporation, Twinsburg, Ohio) emitting UVB (280-320 nm, 65% of total energy) and UVA (320-375 nm, 35% of total energy). The radiant dose of UVB was quantified with a UVB Daavlin Flex Control Integrating Dosimeter and further calibrated with an IL-1400 radiometer (International Light, Newburyport, Mass.).
The animals were irradiated for 20 weeks on Tuesdays and Fridays with a radiant exposure of 30 mJ/cm^2/session. One week later, the mice were divided into three groups: 30 animals in each treatment group and 30 animals in the control group. The mice in the two treatment groups received a diet into which was incorporated a freeze-dried broccoli sprout extract powder. The diet of the low dose treatment group included a freeze-dried broccoli sprout extract powder equivalent to 10 μmol/day glucoraphanin, while the diet of the high dose treatment group included a freeze-dried broccoli sprout extract powder equivalent to 50 μmol/day glucoraphanin. […] The mice were fed this diet for 13 weeks.
Tumor volumes were determined by measuring the height, length, and width of each mass that was larger than 1 mm in diameter. The average of the three measurements was used as the diameter and the volume was calculated (v=4πr^3/3). All mice were euthanized on the same day and the size and multiplicity of tumors was determined. Dorsal skins were dissected using a rectangular template (2.5×5 cm) to include the entire treated areas of the mice. Skins were stapled to cardboard, photographed, and fixed in ice-cold 10% phosphate-buffered formalin at 4° C. for 24 h.
Tumor incidence was evaluated using the Kaplan-Meier survival analysis followed by both a stratified log-rank test and a Wilcoxon test, for equality of survivor functions. Tumor multiplicity was evaluated by ANOVA and comparisons were made on all treatments and on individual, paired treatments (t-test). Tumor volume was evaluated by ANOVA with treatment time as a nested variable. These calculations were performed using Stata 7.0 (College Station, Tex.). Other statistics were calculated using Excel.

[2] = mice, dietary; cited from earlier work
[3] = Plasma levels of sulforaphane and its metabolites after chronic dietary treatment; type: in vivo, mice
Source text: These levels are adequate to expect biological effects.

NQO1 [4] = conditions: topical, extract containing 1 μmol sulforaphane, skin 24 h later, vs vehicle
Source text: (§1) The phase 2 response was next evaluated in vivo in […] hairless mice. Female SKH-1 hairless mice (4 weeks old) were obtained from Charles River Breeding Laboratories (Wilmington, Mass.) and were acclimatized in our animal facility for 2 weeks before the start of the experiment. The animals were kept on a 12-h light/12-h dark cycle, 35% humidity, and given free access to water and pelleted AIN 76A diet (Harlan TekLad, free of inducers). All animal experiments were in compliance with the National Institutes of Health Guidelines and were approved by the Johns Hopkins University Animal Care and Use Committee.
(§2) Seven-week-old SKH-1 hairless mice (5 per group) were treated topically on their backs with either 100 μl of a standardized myrosinase-hydrolyzed broccoli sprout extract containing 1 μmol of sulforaphane, or vehicle (100 μl of 80% acetone:20% water, v/v). The animals were euthanized 24 h later and their dorsal skins were dissected using a rectangular template (2.5×5 cm) and frozen in liquid N2. Skin samples were pulverized in liquid N2 and 100 mg of the resulting powder was homogenized in 1 ml of either 0.25 M sucrose buffered with 10 mM Tris-HCl, pH 7.4, for analysis of NQO1 enzymatic activity and protein content, or ice-cold metaphosphoric acid (50 g/liter) in 2 mM EDTA for analysis of glutathione. […]

glutathione [5] = conditions: topical, extract containing 1 μmol sulforaphane, skin 24 h later, vs vehicle
Source text: as §1, §2

PE murine keratinocytes = conditions: 5 μM for 24 h, UVA 10 J/cm^2, PE cells
Method: Cells (50,000 per well) were plated on 24-well plates, treated with 5 μM sulforaphane for 24 h, washed with DPBS, and then exposed to UVA (10 J/cm^2). Reactive oxygen intermediates generated by the UV radiation were quantified by the fluorescent probe 2′,7′-dichlorodinitrofluorescein and fluorescence intensity was measured (expressed as a ratio of exposed to non-exposed cells).
PE cells (50,000 per well) were seeded into 24-well plates and grown for 48 h. The cells were then exposed to 1 μM or 5 μM sulforaphane for 24 h. On the day of the experiments, after removing the medium, the cells were incubated with 100 μM 2′,7′-dichlorodinitrofluorescein diacetate in 500 μl of fresh medium (Molecular Probes, Eugene, Oreg.) for 30 min. The medium containing the fluorescent probe was then removed, the cells were washed with DPBS, and exposed to UVA radiation (10 J/cm^2). Control cells were kept in the dark. Cells were detached with trypsin, suspended in 2.0 ml of DPBS, and the intensity of fluorescence was determined in cell suspensions at 520 nm with an excitation of 485 nm in 2-ml cuvettes in a Perkin-Elmer LS50 spectrofluorimeter.

RAW 264.7 cells = assay: cells; conditions: Mus musculus, RAW264.7, 24 h, read-out: IC50, inhibition of NO formation
Method: (§3) Cells were treated with various concentrations of sulforaphane and either IFNγ (10 ng/ml) or lipopolysaccharide (LPS; 3 ng/ml) for 24 h. NO in the medium was measured as nitrite by the Griess reaction (A), and iNOS induction was detected by Northern (B) and Western (C) blotting.

HaCaT cells = HaCaT cells at concentrations giving >10-fold NQO1 induction
NQO1 [6] = assay: Skin NQO1 specific activity after 311-nm UV radiation; type: in vivo, SKH-1 hairless mice; conditions: three topical doses at 24-h intervals, 700 mJ/cm^2 311-nm UV 24 h after last dose
Method: (§4) The backs of SKH-1 hairless mice were treated topically with three doses at 24-h intervals of: (i) broccoli sprout extract containing 0.5 μmol of sulforaphane in 50 μl of 80% acetone/20% water (vol/vol) applied to the caudal area, and (ii) solvent applied to the rostral area. The animals received 700 mJ/cm^2 of 311-nm UV radiation 24 h after the last dose and were euthanized 24 h later, and their dorsal skin was harvested. (A) Fresh frozen 9-μm-thick sections of skin were fixed with paraformaldehyde and stained with H&E. (Scale bar 100 μm). (B) Mice were irradiated with a range of doses of UV radiation and euthanized 24 h later. (C) MPO-specific activity was measured in supernatant fractions of total homogenates prepared from liquid nitrogen-frozen and pulverized dorsal skin, and its protein levels were detected by Western blots with anti-MPO antibody (Hycult Biotechnology, Uden, The Netherlands). […] (D and E) MPO-specific (D) and NQO1-specific (E) activities were measured in supernatant fractions of total skin homogenates from mice treated with solvent (black bars), sulforaphane (gray bars), and broccoli sprout extract (white bars) and are expressed as ratios of each treatment to the non-irradiated control. Average values±SD are shown. Eight animals were used in the control group, and four in each of the treatment groups.

[7] = in vivo; cited from earlier work
quinone reductase (NQO1) = conditions: 48 h exposure; for intracellular level of NQO1: serial dilutions
Method: (§5) Cells (20,000 per well) were plated on 96-well plates and exposed to a series of concentrations of sulforaphane. GSH and NQO1 levels were measured in cell lysates after 24 h and 48 h, respectively. Each data point represents the average of the measurements from 8 different wells.
(§6) HaCaT human keratinocytes (a gift from G. Tim Bowden, Arizona Cancer Center, Tucson) were cultured in Dulbecco's modified Eagle's medium (DMEM) supplemented with 5% FBS; and PE murine keratinocytes (a gift from Stuart H. Yuspa, National Cancer Institute, Bethesda, Md.) were cultured in Eagle's minimum essential medium (EMEM) with 8% FBS, treated with Chelex resin (Bio-Rad) to remove Ca^2+.
(§7) Cells (20,000 per well) were grown for 24 h in 96-well plates, then exposed to serial dilutions of sulforaphane for either 24 h (for glutathione determination) or 48 h (for NQO1 determination), and finally lysed in 0.08% digitonin. An aliquot (25 μl) was used for protein analysis. Activity of NQO1 was determined by the Prochaska test (29,30). To measure the intracellular glutathione levels, 25 μl of cell lysate received 50 μl of ice-cold metaphosphoric acid (50 g/liter) in 2 mM EDTA to precipitate cellular protein. After 10 min at 4° C., plates were centrifuged at 1,500 g for 15 min and 50 μl of the resulting supernatant fractions were transferred to a parallel plate. To each of these wells, 50 μl of 200 mM sodium phosphate buffer, pH 7.5, containing 10 mM EDTA, were added and total cellular glutathione was determined by rate measurements in a recycling assay (31,32).

glutathione [8] = conditions: 24 h exposure, serial dilutions
Method: as §5, §6, §7

myeloperoxidase (MPO) = assay: Skin myeloperoxidase (MPO) after 311-nm UV radiation; type: in vivo, SKH-1 hairless mice; conditions: three topical doses at 24-h intervals, 700 mJ/cm^2 311-nm UV 24 h after last dose
Method: as §4

iNOS = conditions: IFN-γ 10 ng/ml or LPS 3 ng/ml overnight
Method: as §3
RAW 264.7 macrophages (2×10^6 cells/well) were incubated with sulforaphane and either 10 ng/ml of IFN-γ or 3 ng/ml of LPS overnight. For Northern blots, total RNA was isolated with Trizol reagent (Invitrogen) and prepared for blotting as previously described (33). Probes for iNOS and GAPDH were radiolabeled with […] with random primers. For Western blots, total cell lysates were subjected to SDS/PAGE, transferred to a membrane, and probed with iNOS and β-actin antibodies (Santa Cruz Biotechnology).

- plasma levels of sulforaphane and its metabolites ([3]; high dose 50 μmol/day glucoraphanin): 2500 nM
- plasma levels of sulforaphane and its metabolites ([3]; low dose 10 μmol/day glucoraphanin): 2200 nM
SMILES: C[S+]([O-])CCCC/C(=N\OS(=O)(=O)O)S[C@@H]1O[C@H](CO)[C@@H](O)[C@H](O)[C@H]1O (stereo partly shown) [glucoraphanin]
- inhibition in the total tumor volume per mouse ([1]; high dose 50 μmol/day): 70%
- reduction of tumor incidence (percent animals with tumors) ([1]; high dose 50 μmol/day glucoraphanin as freeze-dried broccoli sprout extract powder in diet): 35%
- reduction of tumor multiplicity (number of tumors per mouse) ([1]; high dose 50 μmol/day): 72%
- number of tumors per mouse ([1]; high dose 50 μmol/day): 1.2
- inhibition in the total tumor volume per mouse ([1]; low dose 10 μmol/day): 70%
- reduction of tumor incidence (percent animals with tumors) ([1]; low dose 10 μmol/day glucoraphanin as freeze-dried broccoli sprout extract powder in diet): 25%
- reduction of tumor multiplicity (number of tumors per mouse) ([1]; low dose 10 μmol/day): 47%
- number of tumors per mouse ([1]; low dose 10 μmol/day): 2.3
- fraction converted to sulforaphane upon ingestion [2]: about 10%

SMILES: C[S+]([O-])CCCCN=C=S (stereo not shown) [sulforaphane, 4-methylsulfinylbutyl isothiocyanate]
- induction of NQO1 (NQO1 [4]): ~50%
- elevation of the total glutathione levels (glutathione [5]): ~15%
- reduction in reactive oxygen intermediates generated by the UV radiation (PE murine keratinocytes): 50%
- IC50 (RAW 264.7 cells): 300 nM
- cytotoxicity (HaCaT cells): without any apparent evidence of cytotoxicity
- NQO1 specific activity in skin homogenates (NQO1 [6]): increased the specific activities; also recorded: restoration of the UV radiation decreased NQO1 levels
- reduction of tumor multiplicity (number of tumors per mouse) ([1]; high dose 50 μmol/day): 72%
- reduction of tumor multiplicity (number of tumors per mouse) ([1]; low dose 10 μmol/day): 47%
- tissue half-life [7]: 1 to 2 h
- magnitude of NQO1 induction (quinone reductase (NQO1); HaCaT cells): > 10 fold
- intracellular level of NQO1 (quinone reductase (NQO1); HaCaT human keratinocytes): increased in a dose-dependent manner
- intracellular level of NQO1 (quinone reductase (NQO1); PE murine keratinocytes): increased in a dose-dependent manner
- intracellular level of glutathione (glutathione [8]; HaCaT human keratinocytes): increased in a dose-dependent manner
- intracellular level of glutathione (glutathione [8]; PE murine keratinocytes): increased in a dose-dependent manner
- UV radiation-induced MPO protein and enzyme activity (myeloperoxidase (MPO)): suppressed the increases of MPO protein and enzyme activity levels; also recorded: equivalent protection against the UV radiation-induced MPO elevation
- synthesis of iNOS mRNA (iNOS; Northern blot): inhibited
- synthesis of iNOS protein (iNOS; Western blot): inhibited
